The record followed here is patent EP0098136A2, “Primary and secondary alcohol dehydrogenase enzymes and the use thereof” (priority 1982, dated 1984).

Molecules are shown by their SMILES. “Also recorded” adds a separate entry of the source. Where two headings read alike, the source gives them in different places.

Experiment [1] deals with secondary alcohol dehydrogenase enzyme. Nature of the experiment: Inhibition of secondary alcohol dehydrogenase activity (oxidation of 2-propanol in the presence of potential inhibitors). In kind it is biochemical, Pseudomonas fluorescens NRRL B-1244. As for the experimental part: The activity of the NAD^+-linked secondary alcohol dehydrogenase in each fraction was measured using a fluorescence spectrophotometer by monitoring the formation of reduced NAD^+ (excitation at 340 nm, emission at 460 nm). The assay system (3 ml) contained 150 µmole sodium phosphate buffer pH 7.0, 1.0 µmole NAD^+, a given amount of enzyme fraction, and 20 µ cmole 2-propanol substrate. […] Protein concentrations in each fraction were determined by the method of O.H. Lowry et al., J. Biol. Chem., 193, 255 (1951).
The oxidation of 2-propanol by the purified extract of secondary alcohol dehydrogenase enzyme was conducted in the presence of a lmM concentration of one of the metal chelating agents and thio-reagents listed in Table VI.

For experiment [2] the test system is unchanged. Nature of the experiment: Substrate and cofactor specificity of the purified enzyme. In kind it is biochemical, Pseudomonas fluorescens NRRL B-1244. The note with it: for oxidation rate / activity as substrate (in words): purified enzyme, NAD^+. As for the experimental part:
The rate of dehydrogenation of the primary and secondary alcohols tested was measured with a fluorescence spectrophotometer by following the formation of reduced NAD^+ (excitation at 340 nm, emission at 460 nm). […] The reaction was initiated by the addition of the substrate alcohol. The product aldehydes or ketones were identified by retention time comparisons and cochromatography with authentic standards using flame ionization gas chromatography (a stainless steel column was maintained isothermally at 110 °C). Specific oxidation rates were expressed as nmoles of product formed per min. per mg of protein.
The purified enzyme from step 5 of Example 2 was used in the procedure of Example 1 to oxidize primary and secondary alcohols, diols and aldehydes. The specificity of the dehydrogenase for the substrates is expressed as nmoles of product formed per min. per 85 µg of protein and as a percentage relative to the oxidation rate of 2-propanol (designated as 100% oxidation rate) in Table V.

For experiment [3], the system named is secondary alcohol dehydrogenase.
Experiment [4] concerns secondary alcohol dehydrogenase enzyme. The experiment is classed as biochemical, Pseudomonas fluorescens NRRL B-1244. As for the experimental part:
The effect of NAD^+ and 2-propanol concentrations on the enzyme activity was studied at 25 °C in 0.05 M sodium phosphate buffer pH 7.0. 2-Propanol was kept at a saturated level (6.6 mM) for the determination of the Km value for NAD^+; and NAD^+ was maintained at a saturated level (lmM) for determining the Km value for 2-propanol.

[5] abbreviates: 1 mM inhibitor, oxidation of 2-propanol by purified enzyme.

Take `CCN1C(=O)C=CC1=O` [N-ethylmaleimide]: in experiment [1] (setting [5]), the % Inhibition (in general, the share of the control response that was lost under treatment) is on record as 33%. Turning to `[Hg+2]` [Hg^2+], in experiment [1] (setting [5]), the “% Inhibition” value is given as 100%. Regarding `c1c[nH]cn1` [imidazole], the “% Inhibition” value in experiment [1] (setting [5]) is recorded as 0%.

Regarding `O=C(O)c1cc[c]([Hg+])cc1.[OH-]` [p-hydroxymercuribenzoate], the “inhibition of enzyme activity (in words)” value in experiment [1] is “inhibited”. The “% Inhibition” value in experiment [1] (setting [5]) amounted to 100%. For `c1cnc2c(c1)ccc1cccnc12` [1,10-phenanthroline], the “% Inhibition” value in experiment [1] (setting [5]) turned out to be 100%. For the molecule `O=C(O)CN(CCN(CC(=O)O)CC(=O)O)CC(=O)O` [ethylenediamine tetraacetic acid (EDTA), ethylenediamine tetraacetic acid], the “% Inhibition” value in experiment [1] (setting [5]) turned out to be 0%. With `O=C(O)CI` [iodoacetic acid], in experiment [1], the “% Inhibition” value is reported as 0%. In the case of `CCC(C)O` (stereo not shown) [2-butanol], in experiment [2], the “oxidation rate / activity as substrate (in words)” value (“oxidation rate / activity” for short) is listed as “highest oxidation rate; also recorded: highest activity”. In addition, in experiment [3] (0.9 M 2-butanol solution), the “% of original activity” value was 40%. The “% of its activity” value in experiment [3] (1.1 M 2-butanol solution) was determined as 30%. Take `O=[N+]([O-])c1ccc(O)c2ncccc12` [5-nitro-8-hydroxyquinoline]: the “inhibition of enzyme activity (in words)” value in experiment [1] is reported as “inhibited”. In experiment [1] (setting [5]), the “% Inhibition” value is listed as 100%. With `NC(=O)c1ccc[n+]([C@@H]2O[C@H](COP(=O)([O-])OP(=O)(O)OC[C@H]3O[C@@H](n4cnc5c(N)ncnc54)[C@H](O)[C@@H]3O)[C@@H](O)[C@H]2O)c1` [NAD^+, nicotinamide adenine dinucleotide], the Michaelis constant (Km) (as a rule, the concentration of substrate that gives half-maximal velocity) in experiment [4] (25°C, 0.05 M sodium phosphate buffer pH 7.0, 2-propanol saturated (6.6 mM), read-out: Km value for NAD^+) turned out to be 8.2 µM. With `CC(C)=O` [acetone], the “rate of reduction of acetone to propanol relative to the forward reaction” value in experiment [2] is “about 20%”. Consider `NC(=O)c1ccc[n+]([C@@H]2O[C@H](COP(=O)([O-])OP(=O)(O)OC[C@H]3O[C@@H](n4cnc5c(N)ncnc54)[C@H](OP(=O)(O)O)[C@@H]3O)[C@@H](O)[C@H]2O)c1` [NADP^+], for which the “oxidation rate with NADP^+ as cofactor relative to NAD^+” value in experiment [2] (NADP^+ as cofactor) was “about 50%”. As to `[Cu+2]` [Cu^2+], the “% Inhibition” value in experiment [1] (setting [5]) was found to be 10%. On to `CC(O)CCO` (stereo not shown) [1,3-butanediol], for which the “oxidation rate / activity” value in experiment [2] is “highest activity”. Regarding `CC(C)O` [2-propanol], the Km in experiment [4] (pH 7, read-out: Km value for 2-propanol) stood at 85 µM. Also, the “oxidation rate / activity” value in experiment [2] is “highest activity”. For `CC(N)=O` [acetamide], the “% Inhibition” value in experiment [1] (setting [5]) came to 0%. Still for that read-out and setting: the value for `c1ccc(-c2ccccn2)nc1` [α,α'-dipyridyl] was 40%; that for `NNC(N)=S` [thiosemicarbazide] was 44%.

On to `O=C(O)c1cc(SSc2ccc([N+](=O)[O-])c(C(=O)O)c2)ccc1[N+](=O)[O-]` [5,5'-dithiobis-(2-nitrobenzoate)], for which, in experiment [1], the “inhibition of enzyme activity (in words)” value is reported as “inhibited”. Further, in experiment [1] (setting [5]), the “% Inhibition” value was found to be 100%.
